Source: ChEMBL document CHEMBL1201862, “PubChem BioAssay data set” (2004)
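Test compounds were applied to cells in 96-well plates for 48 hours at 5 doses. Here, GI50 denotes the concentration required for 50% inhibition of growth.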 Calls of active or inactive are those of the source. Cut-off read from the data, not from the text of the source: active = GI50 up to about 1.1 µM and inactive = higher.

Assays:
Assay in all cases: inhibition of tumour cell growth, NCI panel, 48 h
A498 = system: A498
CAKI-1 = system: CAKI-1
HCT-15 = system: HCT-15
HOP-62 = system: HOP-62
IGROV-1 = system: IGROV-1
MDA-MB-231 = system: MDA-MB-231
MDA-MB-435 = system: MDA-MB-435
MDA-N = system: MDA-N
MOLT-4 = system: MOLT-4
OVCAR-8 = system: OVCAR-8
SF-268 = system: SF-268
SK-OV-3 = system: SK-OV-3
SNB-19 = system: SNB-19
SNB-75 = system: SNB-75
TK-10 = system: TK-10
UACC-62 = system: UACC-62
Malme-3M = system: Malme-3M
HL-60 = system: HL-60
HCC 2998 = system: HCC 2998

SMILES | GI50 (A498) | GI50 (CAKI-1) | GI50 (HCT-15) | GI50 (HOP-62) | GI50 (IGROV-1) | GI50 (MDA-MB-231) | GI50 (MDA-MB-435) | GI50 (MDA-N) | GI50 (MOLT-4) | GI50 (OVCAR-8) | GI50 (SF-268) | GI50 (SK-OV-3) | GI50 (SNB-19) | GI50 (SNB-75) | GI50 (TK-10) | GI50 (UACC-62) | GI50 (Malme-3M) | GI50 (HL-60) | GI50 (HCC 2998)
Cc1ccc(/N=N/c2c(O)ccc3ccccc23)c(C)c1 | > 100 µM (inactive) | > 100 µM (inactive) | > 100 µM | > 100 µM (inactive) | > 100 µM (inactive) | > 100 µM (inactive) | > 100 µM (inactive) | > 100 µM (inactive) | > 100 µM (inactive) | > 100 µM (inactive) | > 100 µM (inactive) | > 100 µM (inactive) | > 100 µM (inactive) | > 100 µM (inactive) | > 100 µM (inactive) | > 100 µM (inactive) |  |  | 
c1cc2c(cc1C(N1CCNCC1)N1CCNCC1)OCO2 | > 100 µM (inactive) | > 100 µM (inactive) | > 100 µM | > 100 µM (inactive) | > 100 µM (inactive) | > 100 µM (inactive) | > 100 µM (inactive) | > 100 µM (inactive) |  | > 100 µM (inactive) | > 100 µM (inactive) | > 100 µM (inactive) | > 100 µM (inactive) | > 100 µM (inactive) | > 100 µM (inactive) | > 100 µM (inactive) | > 100 µM (inactive) |  | 
COc1cc2c3c(n(C)c(=O)c2cc1OC)-c1cc2c(cc1/C3=C\CCCCCBr)OCO2 | 14.5 µM (inactive) | 3.81 µM (inactive) | 21.3 µM |  | 0.0546 µM (active) | 40.3 µM (inactive) |  | 34.8 µM (inactive) | 1.45 µM (inactive) | 9.53 µM (inactive) | 4.31 µM (inactive) | 7.91 µM (inactive) | 6.5 µM (inactive) | 12.1 µM (inactive) | 20.6 µM (inactive) |  |  | 4.02 µM (inactive) | 
CC(C)CCCC(C)[C@H]1CCC2[C@@H]3CCC4Cc5nc6c(nc5C[C@]4(C)C3CC[C@@]21C)CC1CC[C@@H]2C(CC[C@@]3(C)C2CC[C@@H]3O)[C@@]1(C)C6 (stereo not given in full) | > 100 µM (inactive) |  | > 100 µM | > 100 µM (inactive) | > 100 µM (inactive) | > 100 µM (inactive) | > 100 µM (inactive) | > 100 µM (inactive) | > 100 µM (inactive) | > 100 µM (inactive) | > 100 µM (inactive) | > 100 µM (inactive) | > 100 µM (inactive) | 62.2 µM (inactive) | > 100 µM (inactive) | > 100 µM (inactive) | > 100 µM (inactive) | > 100 µM (inactive) | 
Cc1ccc([N+](=O)[O-])cc1S(=O)(=O)Nc1ccc(C2=NN(c3ccc([N+](=O)[O-])cc3[N+](=O)[O-])C(c3ccccc3O)C2)cc1 (stereo not given) |  | 33.8 µM (inactive) | 27 µM | 36.3 µM (inactive) | 26.4 µM (inactive) | 20.6 µM (inactive) | 39.4 µM (inactive) | 29.3 µM (inactive) | 12.7 µM (inactive) | 38.4 µM (inactive) | 35.6 µM (inactive) | 57 µM (inactive) | 47.1 µM (inactive) | 40.4 µM (inactive) | 43.7 µM (inactive) |  | 41.7 µM (inactive) | 27.4 µM (inactive) | 
CN(C)CCCNc1ccc([N+](=O)[O-])c2nc3ccccc3c(N)c12 | 2.22 µM (inactive) | 2.67 µM (inactive) | 0.423 µM | 2.36 µM (inactive) | 0.659 µM (active) | 0.598 µM (active) | 0.718 µM (active) | 0.458 µM (active) | 0.278 µM (active) | 0.483 µM (active) | 0.839 µM (active) | 0.228 µM (active) | 0.635 µM (active) |  | 2.27 µM (inactive) | 1.25 µM (inactive) | 0.51 µM (active) | 0.459 µM (active) | 
CN1CCN(/C(N)=C(\C#N)C(=O)Nc2ccccc2)CC1 | > 100 µM (inactive) | > 100 µM (inactive) | > 100 µM | > 100 µM (inactive) | > 100 µM (inactive) |  | > 100 µM (inactive) | > 100 µM (inactive) | > 100 µM (inactive) | > 100 µM (inactive) |  | > 100 µM (inactive) | > 100 µM (inactive) | > 100 µM (inactive) |  | > 100 µM (inactive) |  |  | > 100 µM (inactive)
